“Also recorded” adds a separate entry of the source.
What was measured:
mouse C2C12 myoblasts = assay: Cell permeability by fluorescence microscopy; format: cell-based; conditions: 12 h, 125 μM, intrinsic fluorescence
Experimental: For cell permeability studies, human fibroblasts or mouse myoblasts grown to 80% confluence were exposed to compounds for 12 hours in a 96 well tissue culture plate. After removal of the culture media (DMEM, with 10% FBS, 1% pen-strep (GIBCO)) the cells were washed twice with PBS to remove excess compounds. Cells were then imaged while in buffer under a fluorescence microscope (Olympus IX70) in the 96-well plate using a 460 nm emission filter.

human fibroblasts = assay: MTT toxicity assay; format: cell-based; conditions: single substance, concentrations up to 500 μM
Experimental: (§1) For toxicity studies, mouse myoblasts or human fibroblasts were plated in a 96-well tissue culture plate in DMEM (10% fetal bovine serum, 100 units/ml penicillin, […]) and allowed to grow to approximately 80% confluence at 37° C. under CO2. Varying compound concentrations (up to 1 mM) were incubated with cells (48 hours, 37° C.). Media was then removed, and 3-(4,5-dimethylthiazol-2-yl)-2,5-diphenyltetrazolium bromide (“MTT”) in media was added to each well and incubated at 37° C. for 4 h. After removal of the MTT media, isopropanol (100 pp was added, and absorbance was measured at 600 nm on a Modulus microplate reader (Turner Biosystems).
SPR and fluorescence titration experiments, performed using the protocol described in Examples 3 and 4 above, except using as the target a highly conserved RNA sequence responsible for regulating the production of the Gag-Pol polyprotein via a −1 ribosomal frameshift, which occurs along a “slippery sequence” in gag-pol mRNA (SEQ ID NO: 7). This “frameshift stimulatory sequence” (or “HIV-1 FSS”) consists of an upper stemloop and a lower stem, separated by a purine bulge in the most common types of HIV (FIG. 19). For the fluorescent titration experiments, the upper stemloop of SEQ ID NO: 7 was employed. Cell uptake and toxicity studies were carried out using human fibroblasts according to Example 5 above.

[1] = target: (CUG)10 RNA (SEQ ID NO: 3); assay: SPR binding to immobilized biotinylated RNA; conditions: SPR, (CUG)10
Experimental: SPR binding measurements were performed on a Biacore-X instrument (Biacore, Inc., Uppsala, Sweden) with two flow channels (FC1 and FC2). 5′-Biotinylated-RNA sequences, with a C6 linker separating the biotin label from the RNA (Integrated DNA Technologies Inc.) were immobilized on streptavidin (Rockland Immunochemicals) functionalized carboxylmethyl dextran coated sensor chips (CM5, G.E. Healthcare) using EDC/NHS (Advanced ChemTech) coupling chemistry. Filtered (0.2μ), degassed and autoclaved HBS-N buffer (0.01M Hepes, pH=7.4, 0.15 M NaCl) was employed as sample and as running buffer for all SPR experiments. A typical protocol for an experiment is as follows: A CM5 sensor chip was allowed to equilibrate to room temperature and then docked into the instrument. Following priming with running buffer, FC1 and FC2 were conditioned by manual injection of 20 μL aqueous NaOH (50 mM) at a flow rate of 30 μL/min. This was repeated 3 times followed by a wash command. Next, the carboxyl groups on the sensor chip surface in both flow cells were activated separately by injecting 60 μL of freshly prepared 1:1 mixture of EDC (0.4 M) and NHS (0.1 M) at a 5 μL/min flow rate followed by a wash. […] After washing, the surface was deactivated with 60 μL injection of ethanolamine (1M, pH=8.5) at 5 μL/min. The flow cells were primed, and the streptavidin surface in FC1 alone was blocked with 30 μL of biotin (20 μM in HBS-N) at 5 μL/min. The RNA (200 nM in running buffer, HBS-N) to be immobilized was unfolded by heating above its predicted melting temperature in a heated block for 2 min and then allowed to refold by cooling gradually to room temperature. The RNA was then immobilized in FC2 alone to response units ranging from 200-1000 RU using a 5 μL/min flow rate. Representative sensorgrams for the immobilization procedure is shown in FIGS. 2A-B. Two 20 μL aliquots of NaCl (0.5 M) were injected at a 30 μL/min flow rate to remove non-specifically bound RNA. The level of RNA immobilized was noted when the baseline was stable, usually after repeated buffer injection followed by a “prime” command. Binding measurements were performed by flowing various concentrations of the compounds to be analyzed over the immobilized RNA and recording the reference-subtracted (FC2−FC1) sensorgrams. For kinetic analysis, at least five sensorgrams corresponding to different concentrations of compound (usually ranging from 0.05-1 μM in HBS-N) were obtained using flow rates of either 60 μL/min or 30 μL/min. The experimental sensorgrams were globally fitted to a 1:1 binding equation (Biaevaluation software) to obtain association rates (ka) and dissociation rates ([…]) as well as equilibrium binding constants (KD). To measure the binding stoichiometry (n), the relations in equations (1-3) below were used: […]
where RUmax is the maximum resonance response unit at saturation, RURNA is the amount RU of RNA immobilized, n is the stoichiometry, MWcompound and MWRNA are molecular weights of compound and RNA respectively, and RUeq represents the resonance response at steady-state (equilibrium). The response units at equilibrium were subjected to Scatchard binding plots of (r/Cfree vs. r).
This technique allows the association and dissociation rates (ka and kd), equilibrium binding constants (KD), and the binding stoichiometry (n) to be measured in a label-free format (Liu and Wilson, “Quantitative Analysis of Small Molecule-nucleic Acid Interactions with a Biosensor Surface and Surface Plasmon Resonance Detection,” Methods Mol. Biol. 613:1-23 (2010), which is hereby incorporated by reference in its entirety).

pseudotyped HIV = assay: Pseudotyped HIV assay (HEK293T producer cells, p24 ELISA, HeLa LTR-luciferase); format: cell-based, HIV-1; conditions: 500 nM, single dose experiments
Experimental: Initial experiments were conducted to ascertain if compound 14 (designated as compound 5-5 Z in PCT Publ. […]. After transfection, cells were incubated with compound for 20 hours. Viruses produced in untreated and treated cells were recovered from the media and viral titers were assessed using a p24 ELISA assay as described previously by Miller et al., “The Dimerization Domain of HIV-1 Viral Infectivity Factor Vif is Required to Block Virion Incorporation of APOBEC3G,” Retrovirology 4:81 (2007), which is hereby incorporated by reference in its entirety. The same number of virus from control and compound-treated cells were used to infect a HeLa cell line expressing luciferase under the control of an LTR promoter (Platt et al., “Effects of CCRS and CD4 Cell Surface Concentrations on Infections by Macrophagetropic Isolates of Human Immunodeficiency Virus Type 1,” J. Virol. 72:2855-2864 (1998), which is hereby incorporated by reference in its entirety). Viral infectivity was quantified in microtiter well format based on the luciferase signals. […]
This experiment was repeated using a dose-response study to assess the efficacy of compound 18. […] Actin concentration (as measured by Western blot) was used to correct viral titers for any subtle variation in cell number, and to confirm that the observed effect is specific to virus production and not to off-target effects. […]

[2] = system: human fibroblasts / mouse myoblasts; assay: MTT toxicity assay, comparison drugs (FIGS. 13A-B); format: cell-based
Experimental: as §1

Row | SMILES | cell membrane penetration / localization (mouse C2C12 myoblasts) | toxicity (MTT) (human fibroblasts) | apparent KD [1] | decrease in viral titer relative to null control (pseudotyped HIV) | toxicity (MTT) [2]
1 | CCc1nc2cc3ccccc3cc2cc1C(=O)O [Compound 2, 2-ethylbenzo[g]quinoline-3-carboxylic acid] | only a modest ability to enter cells; also recorded: not internalized by cells | no toxicity | complete lack of binding | no effect | 
2 | COc1cccc2c1C(=O)c1c(O)c3c(c(O)c1C2=O)C[C@@](O)(C(C)=O)C[C@@H]3O[C@H]1C[C@H](N)[C@H](O)[C@H](C)O1 [daunorubicin] |  |  |  |  | significant toxicity at all concentrations tested
